Measured values taken from US10045974B2, “2-amino-6-(difluoromethyl)-5,5-difluoro-6-phenyl-3,4,5,6-tetrahydropyridines as BACE1 inhibitors” (H. Lundbeck A/S, priority 2014, dated 2018).

Target: BACE1 (Homo sapiens (Human), UniProt P56817)
Experiment: BACE1 efficacy assay (FRET-based, commercial BACE1 kit)
Assay type: biochemical
Details: test compound 10 μM
Protocol: The efficacy assay was performed as a FRET-based assay using a commercially available BACE1 kit (Life Technologies, P2985). 2 μl test compound at 10 μM (final concentration) and 15 μl BACE1 enzyme from the kit (final concentration 3 nM) were preincubated for 15 minutes at room temperature before addition of 15 μl of substrate from the kit (250 nM final concentration) and incubated for additional 90 minutes at room temperature. The assay plate was subsequently read in a Pherastar (Ex540/Em590). The enzyme activity observed in presence of test compound were normalized to the enzyme activity observed in presence of buffer and 10 μM (final concentration) of the high affinity BACE1 reference inhibitor (S)-6-[3-Chloro-5-(5-prop-1-ynyl-pyridin-3-yl)-thiophen-2-yl] -2-imino-3,6-dimethyl-tetra-hydropyrimidin-4-one, respectively. The efficacy of the test compounds was evaluated at 10 μM (final concentration) and defined as the percent inhibition of the enzyme activity using the equation %inhibition=100% -normalized enzyme activity in percent.

Chain of BACE1 (P56817 46-501): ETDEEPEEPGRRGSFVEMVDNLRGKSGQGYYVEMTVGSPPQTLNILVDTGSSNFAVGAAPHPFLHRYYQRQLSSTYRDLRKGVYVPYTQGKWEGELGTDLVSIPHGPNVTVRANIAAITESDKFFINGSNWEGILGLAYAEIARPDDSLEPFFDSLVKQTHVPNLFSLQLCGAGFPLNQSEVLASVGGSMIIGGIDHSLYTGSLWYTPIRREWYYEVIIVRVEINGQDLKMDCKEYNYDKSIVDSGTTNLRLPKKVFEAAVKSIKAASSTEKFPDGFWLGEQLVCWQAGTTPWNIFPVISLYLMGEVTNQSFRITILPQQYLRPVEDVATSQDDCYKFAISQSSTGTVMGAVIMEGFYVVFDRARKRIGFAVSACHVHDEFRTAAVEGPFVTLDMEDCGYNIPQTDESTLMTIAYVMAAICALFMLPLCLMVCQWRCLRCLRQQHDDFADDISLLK

Row | inhibition at 10 µM | Compound
1 | 106% | COc1cnc(C(=O)Nc2ccc(F)c([C@@]3(C(F)F)N=C(N)CCC3(F)F)c2)c(C)n1 [Compound 10, (S)-N-(3-(6-amino-2-(difluoromethyl)-3,3-difluoro-2,3,4,5-tetrahydropyridin-2-yl)-4-fluorophenyl)-5-methoxy-3-methylpyrazine-2-carboxamide]
2 | 108% | [2H]C([2H])([2H])Oc1cnc(C(=O)Nc2ccc(F)c([C@@]3(C(F)F)N=C(N)CCC3(F)F)c2)cn1 [Compound 14, (S)-N-(3-(6-amino-2-(difluoromethyl)-3,3-difluoro-2,3,4,5-tetrahydropyridin-2-yl)-4-fluorophenyl)-5-(methoxy-d3)pyrazine-2-carboxamide]
3 | 106% | NC1=N[C@@](c2cc(NC(=O)c3ccc(Cl)cn3)ccc2F)(C(F)F)C(F)(F)CC1 [Compound 1, (S)-N-(3-(6-amino-2-(difluoromethyl)-3,3-difluoro-2,3,4,5-tetrahydropyridin-2-yl)-4-fluorophenyl)-5-chloropicolinamide]
4 | 102% | Cc1csc(C(=O)Nc2ccc(F)c([C@@]3(C(F)F)N=C(N)CCC3(F)F)c2)n1 [Compound 8, (S)-N-(3-(6-amino-2-(difluoromethyl)-3,3-difluoro-2,3,4,5-tetrahydropyridin-2-yl)-4-fluoro-phenyl)-4-methylthiazole-2-carboxamide]

Further lines, the compound ahead of its results:

Row | Compound | inhibition at 10 µM
5 | COc1cnc(C(=O)Nc2ccc(F)c([C@@]3(C(F)F)N=C(N)CCC3(F)F)c2)nc1 [Compound 9, (S)-N-(3-(6-amino-2-(difluoromethyl)-3,3-difluoro-2,3,4,5-tetrahydropyridin-2-yl)-4-fluorophenyl)-5-methoxypyrimidine-2-carboxamide] | 103%
6 | Cc1nc(C(=O)Nc2ccc(F)c([C@@]3(C(F)F)N=C(N)CCC3(F)F)c2)co1 [Compound 4, (S)-N-(3-(6-amino-2-(difluoromethyl)-3,3-difluoro-2,3,4,5-tetrahydropyridin-2-yl)-4-fluorophenyl)-2-methyloxazole-4-carboxamide] | 104%
7 | COc1ccc(C(=O)Nc2ccc(F)c([C@@]3(C(F)F)N=C(N)CCC3(F)F)c2)nc1 [Compound 5, (S)-N-(3-(6-amino-2-(difluoromethyl)-3,3-difluoro-2,3,4,5-tetrahydropyridin-2-yl)-4-fluorophenyl)-5-methoxypicolinamide] | 101%
8 | [2H]C([2H])([2H])Oc1ccc(C(=O)Nc2ccc(F)c([C@@]3(C(F)F)N=C(N)CCC3(F)F)c2)nc1 [Compound 13, (S)-N-(3-(6-amino-2-(difluoromethyl)-3,3-difluoro-2,3,4,5-tetrahydropyridin-2-yl)-4-fluorophenyl)-5-(methoxy-d3)picolinamide] | 103%
9 | NC1=N[C@@](c2cc(NC(=O)c3cnc(C(F)F)cn3)ccc2F)(C(F)F)C(F)(F)CC1 [Compound 6, (S)-N-(3-(6-amino-2-(difluoromethyl)-3,3-difluoro-2,3 ,4,5-tetrahydropyridin-2-yl)-4-fluorophenyl)-5-(difluoromethyl)pyrazine-2-carboxamide] | 103%
10 | COc1cnc(C(=O)Nc2ccc(F)c([C@@]3(C(F)F)N=C(N)CCC3(F)F)c2)cn1 [Compound 3] | 103%
11 | NC1=N[C@@](c2cc(NC(=O)c3ccc(F)cn3)ccc2F)(C(F)F)C(F)(F)CC1 [Compound 2, (S)-N-(3-(6-amino-2-(difluoromethyl)-3,3-difluoro-2,3,4,5-tetrahydropyridin-2-yl)-4-fluorophenyl)-5-fluoropicolinamide] | 100%
